# From publication PMC4574636 (Biochemical pharmacology, 2015)
# Where two headings read alike, the source gives them in different places.
# B1: AOX1 (Homo sapiens) (protein)
# chain: MDRASELLFYVNGRKVIEKNVDPETMLLPYLRKKLRLTGTKYGCGGGGCGACTVMISRYNPITKRIRHHPANACLIPICSLYGAAVTTVEGIGSTHTRIHPVQERIAKCHGTQCGFCTPGMVMSIYTLLRNHPEPTLDQLTDALGGNLCRCTGYRPIIDACKTFCKTSGCCQSKENGVCCLDQGINGLPEFEEGSKTSPKLFAEEEFLPLDPTQELIFPPELMIMAEKQSQRTRVFGSERMMWFSPVTLKELLEFKFKYPQAPVIMGNTSVGPEVKFKGVFHPVIISPDRIEELSVVNHAYNGLTLGAGLSLAQVKDILADVVQKLPEEKTQMYHALLKHLGTLAGSQIRNMASLGGHIISRHPDSDLNPILAVGNCTLNLLSKEGKRQIPLNEQFLSKCPNADLKPQEILVSVNIPYSRKWEFVSAFRQAQRQENALAIVNSGMRVFFGEGDGIIRELCISYGGVGPATICAKNSCQKLIGRHWNEQMLDIACRLILNEVSLLGSAPGGKVEFKRTLIISFLFKFYLEVSQILKKMDPVHYPSLADKYESALEDLHSKHHCSTLKYQNIGPKQHPEDPIGHPIMHLSGVKHATGEAIYCDDMPLVDQELFLTFVTSSRAHAKIVSIDLSEALSMPGVVDIMTAEHLSDVNSFCFFTEAEKFLATDKVFCVGQLVCAVLADSEVQAKRAAKRVKIVYQDLEPLILTIEESIQHNSSFKPERKLEYGNVDEAFKVVDQILEGEIHMGGQEHFYMETQSMLVVPKGEDQEMDVYVSTQFPKYIQDIVASTLKLPANKVMCHVRRVGGAFGGKVLKTGIIAAVTAFAANKHGRAVRCVLERGEDMLITGGRHPYLGKYKAGFMNDGRILALDMEHYSNAGASLDESLFVIEMGLLKMDNAYKFPNLRCRGWACRTNLPSNTAFRGFGFPQAALITESCITEVAAKCGLSPEKVRIINMYKEIDQTPYKQEINAKNLIQCWRECMAMSSYSLRKVAVEKFNAENYWKKKGLAMVPLKFPVGLGSRAAGQAAALVHIYLDGSVLVTHGGIEMGQGVHTKMIQVVSRELRMPMSNVHLRGTSTETVPNANISGGSVVADLNGLAVKDACQTLLKRLEPIISKNPKGTWKDWAQTAFDESINLSAVGYFRGYESDMNWEKGEGQPFEYFVYGAACSEVEIDCLTGDHKNIRTDIVMDVGCSINPAIDIGQIEGAFIQGMGLYTIEELNYSPQGILHTRGPDQYKIPAICDMPTELHIALLPPSQNSNTLYSSKGLGESGVFLGCSVFFAIHDAVSAARQERGLHGPLTLNSPLTPEKIRMACEDKFTKMIPRDEPGSYVPWNVPI
# B2: aldehyde oxidase (AOX) (Homo sapiens) (protein)
# chain: B1 chain
# B3: AOX1 (Macaca mulatta) (protein)
# chain: MDRASELLFYVNGRKVIEKNVDPETMLLPYLRKKLRLTGTKYGCGGGGCGACTVMISRYNPITNRIRHHPANACLIPICSLYGTAVTTVEGIGSTHTRIHPVQERIAKCHGTQCGFCTPGMVMSIYTLLRNHPEPTLDQLTDALGGNLCRCTGYRPIIDACKTFCETSGCCQSKENGVCCLDQGINGLPEFEEGSKTSPKLFAEEEFLPLDPTQELIFPPELMIMAEKQPQRTRVFGSERMMWFSPVTLKELLEFKFKYPQAPVIMGNTSVGPQVKFKGVFHPVIISPDRIEELSVVNRTHNGLTLGAGLSLAQVKDILADVVQKLPEEKTQTYHALLKHLGTLAGSQIRNMASLGGHIISRHPDSDLNPILAVGNCTLNLLSKEGKRQIPLNEQFLSKCPNADLKPQEILVSVNIPYSRKLEFVSAFRQAQRQENALAIVNSGMRVFFGEGHGIIRELSISYGGVGPATICAKNSCQKLIGRHWNEEMLDTACRLVLEEVSLSGSAPGGKVEFKRTLIISFLFKFYLEVSQILKKMDPIHYPSLADKYESALEDLHSKHHCSTLKYQHMGPKQHPEDPIGHPIMHLSGVKHATGEAIYCDDMPPVDQELFLTFVTSSRAHAKIVSIDLSEALSMPGVVDVITAEHLSDVNSFCFFTEAEEFLATDKVFCVGQLVCAVLADSEVQAKQAAKQVKIVYQDLEPLILTIKEAIQHNSFFEPERKLEYGNVDEAFKVVDQILEGEIHMGGQEHFYMETQSMLVVPKGEDQEMDVYVSTQFPKYIQDIVASTLKLPANKVMCHVKRVGGAFGGKAFKTGVIAAVTAFAANKHGRAVRCVLERGEDMLITGGRHPYLGKYKAGFMNDGRILALDMEHYSNAGNSLDESLLVIEMGLLKMDNAYKFPNLRCRGWACRTNLPSNTAFRGFGFPQAGLITESCIMEVAAKCGLSPEKVRMINMYKEIDQTPYKQEINAKNLIQCWRECMAVSSYSLRKAAVEKFNAENYWKKKGLAMVPLKYPVGLGSRAAGQAAALVHIYLDGSVLVTHGGIEMGQGVHTKMIQVVSRELGMPISNVHLRGTSTETVPNANVSGGSVVADLNGLAVKDACQILLKRLEPIISKNPKGTWKDWAQTAFDESISLSAVGYFRGYESDINWEKGEGHPFEYFVYGAACSEVEIDCLTGDHKNIRTDIVMDVGCSINPAIDIGQIEGAFIQGMGLYTIEELNYSPQGVLHTRGPDQYKIPAICDTPTEFHISLLPPSENSNTLYSSKGLGESGVFLGCSVFFAIHDAVSAARRERGLHGPLSLNSPLTPEKIRMACEDKFTKMIPRDEPGSCVPWNVPI
# How the values were obtained:
# aldehyde oxidase (AOX) [1] = experiment: Metabolism kinetics of DACA and phthalazine in rabbit cytosol; conditions: for kcat: rabbit cytosol
# aldehyde oxidase (AOX) [2] = target: T1, aldehyde oxidase (AOX) (Homo sapiens, UniProt Q06278); experiment: Metabolism kinetics of DACA and phthalazine in human cytosol
# T1 sequence (Q06278 1-1338): B1 chain
# aldehyde oxidase (AOX) [3] = target: T1, aldehyde oxidase (AOX)
# aldehyde oxidase (AOX) [4] = tested on: aldehyde oxidase (AOX)
# [5] = substrate: CN(Cc1cnc2nc(N)nc(N)c2n1)c1ccc(C(=O)N[C@@H](CCC(=O)O)C(=O)O)cc1
# [6] = substrate: c1ccc2cnncc2c1; experiment: cells, lysate or membranes named; conditions: other: human cytosol; unit not given
molecule,measurement,setting,value
c1ccc2cnncc2c1 [phthalazine],Km,"aldehyde oxidase (AOX) [1]; New Zealand, rabbit, cytosol",23 µM
same,kcat,aldehyde oxidase (AOX) [1],"16,000 min^−1"
CN(C)CCNC(=O)c1cccc2cc3ccccc3nc12 [DACA],kcat,aldehyde oxidase (AOX) [2],2.22 s⁻¹
same,Km,aldehyde oxidase (AOX) [3],7 µM
same,kcat,aldehyde oxidase (AOX) [1],182 min⁻¹
same,Km,aldehyde oxidase (AOX) [4],2 µM
B1,Km,[5],2800 µM
same,Vmax,[5],40 to 70 pmol/min/mg
same,kcat/Km,[5],15 M⁻¹ s⁻¹
B2,kcat,[6],4.37 s⁻¹
B3,Km,[5],323 ± 123 µM
